Structure (SMILES): O=S(=O)(CC(CS)Cc1ccccc1)N1CCN(c2ccc(F)cc2)CC1 (stereo not shown) [Example 1, N-(4-fluorophenyl)-N′-(2-benzyl-3-mercaptopropane-1-sulphonyl)-piperazine]
- melting point: 73 °C

From US20030100548A1, “Arylpiperazines and their use as metallaproteinase inhibiting agents (mmp)” (priority 2000, published 2003)
